Results reported in patent US8653108B1, “Oximes for treatment of peripheral and central nervous system exposure to acetyl cholinesterase inhibitors” (priority 2011, dated 2014).

What was measured:
[1] = test system: Madin Darby canine kidney cell line transfected with human MDR-1 gene; assay: MDR/MDCK bidirectional transwell permeability assay; assay type: in vitro ADME
Procedure: (§1) See, Wang, Q. et al, Evaluation of the MDR-MDCK Cell Line As a Permeability Screen For The Blood Brain Barrier, Int. J. Pharm. 288(2) 349-359. The assay is a bidirectional assay in a transwell format system, assessing the permeability of compounds across a Madin Darby canine kidney cell line transfected with human MDR-1 gene. Efflux is assessed based on ratios from the basolateral and apical sides of the chamber.

human MDR-1 (P-gp) = assay: as above; assay type: in vitro ADME, canine; details: dog
Procedure: as §1

Structure (SMILES) | Brain Penetration Classification [1] | Papp A-B ([1]; apical to basolateral) | Papp B-A ([1]; basolateral to apical) | Papp A→B (human MDR-1 (P-gp); MDCK-MDR1, apical to basolateral) | Papp B→A (human MDR-1 (P-gp); MDCK-MDR1, basolateral to apical)
CS(=O)(=O)[O-].CS(=O)(=O)[O-].ON=Cc1cc[n+](C[n+]2ccc(C=NO)cc2)cc1 [MMB4 DMS] | Low | <0.57 ×10⁻⁶ cm/s | <0.57 ×10⁻⁶ cm/s | – | –
CCN(CC)CCNC(=O)/C=N/O.Cl [Example 1, N-(2-(diethylamino)ethyl)-2-(hydroxyimino)acetamide hydrochloride] | Low | – | – | < 0.51 ×10⁻⁶ cm/s | < 0.67 ×10⁻⁶ cm/s
